Like-named read-outs stand apart in the source and are kept apart here.
Tests used:
Conditions in all cases: 0.2 M citric acid pH 4.0, 30°C
[1] = system: white laccase from Myrothecium verrucaria NF-05
[2] = system: T1, white laccase from Myrothecium verrucaria NF-05; test: oxidation at […] nm, Lineweaver-Burk; assay type: biochemical, Albifimbria verrucaria
T1 construct: native extracellular enzyme purified from culture medium; about 66 kDa monomer; 3 Cu and 1 Fe per molecule; no bilirubin oxidase activity detected in the fermentation liquid

[3] = system: T1, white laccase from Myrothecium verrucaria NF-05; test: oxidation at […] nm, Lineweaver-Burk; assay type: biochemical, Albifimbria verrucaria; remark: listed apart in the source
[4] = system: white laccase from Myrothecium verrucaria NF-05; remark: listed apart in the source

**Q.** How did the Km [1] turn out when `CCn1c(=NN=c2sc3cc(S(=O)(=O)O)ccc3n2CC)sc2cc(S(=O)(=O)O)ccc21` [ABTS, 2,2′-azinobis-(3-ethylbenzothiazoline-6-sulphonic acid)] was run?
**A.** 85.9 µM

**Q.** For `Oc1ccccc1O` [catechol], which Km [2] is on record?
**A.** 329 µM

**Q.** For `COc1ccccc1O` [guaiacol], which Km [3] is on record?
**A.** 312 µM

**Q.** With `Oc1ccc(O)cc1` [hydroquinone] as the molecule, how does the Km [4] read?
**A.** 2090 µM
